Experimental data taken from US3970648A, “2-[2-(5-Nitro-2-furyl)vinyl]-4-(anilino)quinazolines” (Diamond Shamrock Corporation, priority 1974, dated 1976).

Columns and labels:
Type in all cases: cell-based
Salmonella gallinarum = assay: Bactericide test, Salmonella gallinarum (agar streak plate); details: Salmonella enterica, GALLINARUM
Procedure, shortened: (§1)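 Compounds in Triton X-155/acetone emulsifier (basic formulation 320 ppm, diluted serially) were mixed 2:8 into molten nutrient-tryptic soy agar, then organisms streaked on the set plates. After 48 hr at 28°C, growth was scored visually against untreated agar as 0%, 50% (sparse, separated colonies) or 100% control (no visible colonies).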

Escherichia coli = assay: Bactericide test, Escherichia coli (agar streak plate)
From the text: Test formulations were examined for bactericidal and/or bacteriostatic activity against the test organisms shown in Tables A and B. These organisms were chosen as being representative of commercially important pathogens affecting animal agriculture. The antibiotic chlortetracycline was chosen as a positive control, since it has a broad spectrum of activity against a large number of organisms, and its activity can be used for comparative purposes.
Basic test formulations of the product of Examples I, II, III, and of chlortetracycline were prepared by dissolving 16 mg (0.016 g) in 2.0 ml of stock emulsifier solution (0.25% Triton X-155 in acetone by volume) and making each solution up to 50 ml with deionized water. The concentration of the test compound in the basic formulation was 320 ppm. Lower concentrations of the test compound were obtained by diluting the basic formulation with a 4% solution of the stock emulsifier in deionized water so that each dilution in the series differed only in test compound content.
Nutrient-tryptic soy agar (NTA) consisting of 2.0% Difco Bactoagar 0.8% nutrient broth (Difco), and 0.5% tryptic soy broth (Difco) was prepared and sterilized by autoclaving. A 2 ml aliquot of each test formulation was added to 8 ml of molten NTA. This mixture was then plated in a sterile polystyrene petri dish (100 × 15 mm). After the agar was set, suspensions of each of the test organisms were simultaneously streaked onto the surface of the agar. The inoculated plates were incubated for 48 hr at 28°C. The inhibition of growth of each organism was rated by visual comparison with the organism developing on non-treated agar. Growth inhibition reported as per cent control was rated in three categories as follows: 0% control, growth equivalent to that on non-treated agar; 50% control, sparse development and separated colonies; 100% control, no visible growth or development of colonies.
Test formulations of the product of Example IV were examined for bactericidal and/or bacteriostatic activity against the test organisms shown in Table B using the Bactericide Test described in Example V. The inhibition of organism growth with each diluted test formulation was rated visually by comparison with the organism developing on a non-treated control agar plate. Growth inhibition reported as per cent control was rated in three categories as follows: 0% control, growth equivalent to that on non-treated agar; 50% control is sparse development and separated colonies; and 100% control, development of individual colonies was not apparent.

Staphylococcus aureus = assay: Bactericide test, Staphylococcus aureus (agar streak plate); details: Staphylococcus aureus
Procedure, shortened: as §1

Streptococcus agalactiae = assay: Bactericide test, Streptococcus agalactiae (agar streak plate); details: Streptococcus agalactiae
Procedure, shortened: (§2)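 Compounds were formulated with Triton X-155/acetone emulsifier (basic formulation 320 ppm, serially diluted) and mixed 2:8 into molten nutrient-tryptic soy agar. Organisms were streaked onto the plates and incubated 48 hr at 28°C. Growth inhibition was scored visually against untreated agar as 0, 50 or 100% control.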

Vibrio coli = assay: Bactericide test, Vibrio coli (agar streak plate); details: Campylobacter coli
Procedure, shortened: as §2

Streptococcus group E = assay: Bactericide test, Streptococcus group E (agar streak plate)
Procedure, shortened: as §2

[1] = tested on: Bordetella bronchiseptica; assay: Bactericide test, Bordetella bronchiseptica (agar streak plate); details: Bordetella bronchiseptica
Procedure, shortened: as §2

Streptococcus faecalis = assay: Bactericide test, Streptococcus faecalis (agar streak plate); details: Enterococcus faecalis
Procedure, shortened: as §1

Salmonella cholerasuis = assay: Bactericide test, Salmonella cholerasuis (agar streak plate); details: Salmonella
Procedure, shortened: as §1

[2] = tested on: Erysipelothrix rhusiopathiae; assay: Bactericide test, Erysipelothrix rhusiopathiae (agar streak plate); details: Erysipelothrix rhusiopathiae
Procedure, shortened: as §2

Salmonella typhimurium = assay: Bactericide test, Salmonella typhimurium (agar streak plate); details: Salmonella enterica, TYPHIMURIUM
Procedure, shortened: as §2

`CN(C)[C@@H]1C(O)=C(C(N)=O)C(=O)[C@@]2(O)C(O)=C3C(=O)c4c(O)ccc(Cl)c4[C@@](C)(O)[C@H]3C[C@@H]12` [Chlortetracycline, reference compound] gave an inhibition at 1 ppm (Salmonella gallinarum; 1 ppm) of 0%, an inhibition at 4 ppm (Salmonella gallinarum; 4 ppm) of 0% and an inhibition at 16 ppm (Salmonella gallinarum; 16 ppm) of 100%. The inhibition at 64 ppm (Salmonella gallinarum; 64 ppm) was 100%, the inhibition at 1 ppm (Escherichia coli) was 0% and the inhibition at 4 ppm (Escherichia coli) was 0%. For the same molecule, the inhibition at 16 ppm (Escherichia coli) was 100%, the inhibition at 64 ppm (Escherichia coli) was 100% and the inhibition at 1 ppm (Staphylococcus aureus) was 0%. For the same molecule, the inhibition at 4 ppm (Staphylococcus aureus) was 0%, the inhibition at 16 ppm (Staphylococcus aureus) was 100% and the inhibition at 64 ppm (Staphylococcus aureus) was 100%. For the same molecule, the inhibition at 1 ppm (Streptococcus agalactiae) was 0%, the inhibition at 4 ppm (Streptococcus agalactiae) was 100% and the inhibition at 16 ppm (Streptococcus agalactiae) was 100%. It also gave an inhibition at 64 ppm (Streptococcus agalactiae) of 100%, an inhibition at 1 ppm (Vibrio coli; 1 ppm) of 0% and an inhibition at 4 ppm (Vibrio coli; 4 ppm) of 100%. For the same molecule, the inhibition at 16 ppm (Vibrio coli; 16 ppm) was 100%, the inhibition at 64 ppm (Vibrio coli; 64 ppm) was 100% and the inhibition at 1 ppm (Streptococcus group E) was 0%. For the same molecule, the inhibition at 4 ppm (Streptococcus group E) was 0%, the inhibition at 16 ppm (Streptococcus group E) was 100% and the inhibition at 64 ppm (Streptococcus group E) was 100%. It also gave an inhibition at 1 ppm [1] of 0%, an inhibition at 4 ppm [1] of 0% and an inhibition at 16 ppm [1] of 0%. It also gave an inhibition at 64 ppm [1] of 100%, an inhibition at 1 ppm (Streptococcus faecalis) of 100% and an inhibition at 4 ppm (Streptococcus faecalis) of 100%. It also gave an inhibition at 16 ppm (Streptococcus faecalis) of 100%, an inhibition at 64 ppm (Streptococcus faecalis) of 100% and an inhibition at 1 ppm (Salmonella cholerasuis) of 0%. The inhibition at 4 ppm (Salmonella cholerasuis) was 0%, the inhibition at 16 ppm (Salmonella cholerasuis) was 100% and the inhibition at 64 ppm (Salmonella cholerasuis) was 100%. The inhibition at 1 ppm ([2]; 1 ppm) was 0%, the inhibition at 4 ppm ([2]; 4 ppm) was 10% and the inhibition at 16 ppm ([2]; 16 ppm) was 100%. The inhibition at 64 ppm ([2]; 64 ppm) was 100%, the inhibition at 1 ppm (Salmonella typhimurium) was 0% and the inhibition at 4 ppm (Salmonella typhimurium) was 0%. For the same molecule, the inhibition at 16 ppm (Salmonella typhimurium) was 0% and the inhibition at 64 ppm (Salmonella typhimurium) was 0%.
